In publication PMC11249646, “Small-Molecule Disruptors of the Interaction between Calcium- and Integrin-Binding Protein 1 and Integrin αIIbβ3 as Novel Antiplatelet Agents” (ACS Pharmacology & Translational Science, 2024):
Like-named read-outs stand apart in the source and are kept apart here.

Legend:
[1] = molecular target: T1, CIB1 and αIIb interaction (CIB1-GST : F-αIIb peptide) (Homo sapiens, UniProt Q99828); assay: FP assay, 1536-well qHTS format (primary and confirmatory screen); assay type: binding
T1 construct: made in house; host or cells: BL-21 plus RIL cells (E. coli)
T1 sequence (Q99828 1-191): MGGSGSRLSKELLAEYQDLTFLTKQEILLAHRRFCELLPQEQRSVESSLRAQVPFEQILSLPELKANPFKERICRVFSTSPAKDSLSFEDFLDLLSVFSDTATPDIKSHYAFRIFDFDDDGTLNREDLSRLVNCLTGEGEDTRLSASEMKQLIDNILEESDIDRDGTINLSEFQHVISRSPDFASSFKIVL

[2] = molecular target: T2, GST-CIB1 : F-scrambled peptide (Homo sapiens, UniProt Q99828); assay: FP scrambled-peptide counter screen, 1536-well format; assay type: binding; conditions: for IC50: read-out: IC50 [μM] (counterscreen); for Confirm? (counterscreen): YES/NO
T2 construct: made in house; host or cells: BL-21 plus RIL cells (E. coli)
T2 sequence (Q99828 1-191): T1 sequence (Q99828 1-191)

[3] = confirmatory screen, qHTS curve class, negative sign = inhibitory curve
[4] = confirmatory screen, read-out: IC50 [μM] (confirmatory screen)
[5] = qHTS primary screen hits, Table S2, negative = inhibition
[6] = qHTS primary screen hits, Table S2, negative sign = inhibitory curve, several classes where COUNT > 1
[7] = qHTS primary screen hits, Table S2, read-out: IC50
[8] = counterscreen, qHTS curve class, negative sign = inhibitory curve
[9] = Table S3, confirmatory screen, YES/NO call
[10] = Table S3, confirmatory screen, qHTS curve class, a negative sign marks inhibitory curves
[11] = Table S3, confirmatory screen, negative = inhibition
[12] = Table S3, counterscreen, qHTS curve class, a negative sign marks inhibitory curves
[13] = Table S3, counterscreen, negative = inhibition
[14] = qHTS FP screen hits, Table S2, negative = inhibition
[15] = qHTS FP screen hits, Table S2, one class per curve where COUNT > 1, negative sign = inhibitory curve
[16] = qHTS FP screen hits, Table S2, read-out: IC50
[17] = Table S3, confirmatory screen, read-out: IC50 [μM] (confirmatory screen)
[18] = qHTS primary screen hits, Table S2, negative sign = inhibitory curve

Row | SMILES | Efficacy (%) (confirmatory screen) ([1]; confirmatory screen) | Confirm? (confirmatory screen) ([1]; confirmatory screen, YES/NO) | Curve Class (confirmatory screen) [1, 3] | IC50 [1, 4] | Efficacy (%) [1, 5] | Curve Class [1, 6] | IC50 [1, 7] | Efficacy (%) (counterscreen) ([2]; counterscreen) | Curve Class (counterscreen) [2, 8] | IC50 ([2]; counterscreen) | Curve Class (confirmatory screen) [1, 10] | Efficacy (%) (confirmatory screen) [1, 11] | Curve Class (counterscreen) [2, 12] | Efficacy (%) (counterscreen) [2, 13] | IC50 ([2]; Table S3, counterscreen) | other results
1 | Cc1cnc(-c2ccccc2C(C)C)nc1NCc1ccc(-c2ccc(F)nc2)cc1.O=C(O)C(F)(F)F [NCGC00253893-01] | -124% | YES | -2.1 | 112 µM | -52% | -2.4 | 50.1 µM | -90% | -2.1 | 44.7 µM | – | – | – | – | – | –
2 | O=C(O)C(F)(F)F.O=S(=O)(Nc1nccs1)c1ccc(Nc2nc(-c3ccccc3)cs2)cc1 [NCGC00262380-01] | – | – | – | – | -69% | -2.2 | 50.1 µM | – | – | – | -2.2 | -80% | -2.1 | -81% | 50.1 µM | Confirm? (confirmatory screen) [1, 9]: YES
3 | N#Cc1ccc(NS(=O)(=O)c2ccc(Nc3nc(-c4ccccc4)cs3)cc2)cc1.O=C(O)C(F)(F)F [NCGC00262382-01] | -103% | YES | -2.1 | 44.7 µM | – | – | – | -84% | -2.2 | 44.7 µM | – | – | – | – | – | Efficacy (%) [1, 14]: -59%; Curve Class [1, 15]: -2.2; IC50 [1, 16]: 70.8 µM
4 | O=C(O)C(F)(F)F.O=S(=O)(NCc1nccs1)c1ccc(Nc2nc(-c3ccccc3)cs2)cc1 [NCGC00262383-01] | – | – | – | – | – | – | – | – | – | – | -2.2 | -80% | -2.2 | -83% | 50.1 µM | Confirm? (confirmatory screen) [1, 9]: YES; Efficacy (%) [1, 14]: -60%; Curve Class [1, 15]: -2.2; IC50 [1, 16]: 50.1 µM
5 | NS(=O)(=O)c1ccc(Nc2nc(-c3ccccc3)cs2)cc1.O=C(O)C(F)(F)F [NCGC00262411-01] | – | – | – | – | -58% | -2.2 | 50.1 µM | – | – | – | -2.2 | -84% | -2.1 | -98% | 44.7 µM | Confirm? (confirmatory screen) [1, 9]: YES
6 | CNc1oc(-c2c[nH]c3ccccc23)nc1C#N.O=C(O)C(F)(F)F [NCGC00262511-01] | – | – | – | – | -19% | – | 15.8 µM | – | – | – | -3 | -55% | -2.4 | -53% | 28.2 µM | Confirm? (confirmatory screen) [1, 9]: YES; IC50 [1, 17]: 35.5 µM; Curve Class [1, 18]: -1.4
7 | Cl.Nc1cc(C(F)(F)F)ccc1S [NCGC00262926-01] | -117% | YES | -1.1 | 22.4 µM | -84% | -1.1 | 28.2 µM | -35% | -1.4 | 12.6 µM | – | – | – | – | – | Confirm? (counterscreen) ([2]; counterscreen): YES
8 | Cc1ccc(S(=O)(=O)Nc2ccc(Br)cc2C(=O)Nc2nc(-c3ccccc3)cs2)cc1.O=C(O)C(F)(F)F [NCGC00262989-01] | – | – | – | – | -26% | -2.4 | 20 µM | – | – | – | 2.4 | 47% | – | 243% | 35.5 µM | –
9 | Cn1cc(-c2[nH]c3cc(NC(=O)[C@H](N)C4CCCCC4)cc4c3c2C=NNC4=O)cn1 [NCGC00263132-02] | – | – | – | – | -24% | -1.4 | 4.2 µM | – | – | – | -2.2 | -85% | -2.1 | -107% | 79.4 µM | Confirm? (confirmatory screen) [1, 9]: YES; IC50 [1, 17]: 50.1 µM
10 | CC(C)c1ccccc1Cc1cc(C(=O)Nc2ccc(S(=O)(=O)c3ccccc3C(C)(C)C)cc2)c(O)c(O)c1O [NCGC00263208-01] | -56% | YES | -1.2 | 14.1 µM | -27% | – | 15.2 µM | -40% | -1.2 | 15.8 µM | – | – | – | – | – | Curve Class [1, 18]: -2.4
11 | Cc1ccc(S(=O)(=O)Nc2cc3c(cc2C(=O)Nc2nc(-c4ccccc4)cs2)OCO3)cc1.O=C(O)C(F)(F)F [NCGC00263702-01] | – | – | – | – | -40% | – | 39.8 µM | – | – | – | 4 | -44% | – | 111% | 44.7 µM | Curve Class [1, 18]: -2.2
12 | COc1ccc(-n2ncc3c2CCCC3NC(=O)c2ccccc2Cl)cc1.O=C(O)C(F)(F)F (stereo not drawn) [NCGC00273443-01] | – | – | – | – | -29% | -2.4 | 25.1 µM | – | – | – | 4 | -11% | 4 | 0% | – | –
13 | COc1ccc(-n2ncc3c2CCCC3NC(=O)c2ccccc2F)cc1.O=C(O)C(F)(F)F (stereo not drawn) [NCGC00273507-01] | – | – | – | – | -45% | -2.2 | 39.8 µM | – | – | – | 2.4 | 22% | 4 | 13% | – | –
14 | Cl.O=[N+]([O-])c1ccc(CNc2ccc(S(=O)(=O)Nc3nccs3)cc2)c(O)c1 [NCGC00273519-01] | -67% | YES | -2.4 | 12.6 µM | -24% | -1.4 | 7.9 µM | -48% | -2.2 | 25.1 µM | – | – | – | – | – | –
15 | Cl.O=[N+]([O-])c1cccc(CNc2ccc(S(=O)(=O)Nc3nccs3)cc2)c1O [NCGC00273554-01] | -49% | YES | -2.4 | 22.4 µM | -27% | -1.4 | 7.1 µM | -43% | -2.2 | 50.1 µM | – | – | – | – | – | –
16 | Cl.O=S(=O)(Nc1nccs1)c1ccc(NCc2cc(Cl)ccc2O)cc1 [NCGC00273561-01] | -48% | YES | -2.4 | 50.1 µM | -27% | -1.4 | 20 µM | -36% | 4 | – | – | – | – | – | – | Confirm? (counterscreen) ([2]; counterscreen): YES
17 | Nc1ccc(CNc2ccc(S(=O)(=O)Nc3nccs3)cc2)c(O)c1.O=C(O)C(F)(F)F [NCGC00273962-01] | -75% | YES | -3 | 89.1 µM | -29% | – | 39.8 µM | -61% | -2.2 | 50.1 µM | – | – | – | – | – | Curve Class [1, 18]: -2.4
18 | Cl.O=S(=O)(Nc1nccs1)c1ccc(NCc2cc(Cl)cc(Br)c2O)cc1 [NCGC00273965-01] | – | – | – | – | -33% | -1.4 | 11.2 µM | – | – | – | – | – | – | – | – | CONFIRMATORY SCREEN Efficacy (%) ([1]; confirmatory screen): -19%; CONFIRMATORY SCREEN Curve Class ([1]; confirmatory screen, qHTS curve class): 4; COUNTERSCREEN Efficacy (%) ([2]; counterscreen): 0%; COUNTERSCREEN Curve Class ([2]; counterscreen, qHTS curve class): 4
19 | O=C(O)C(F)(F)F.O=S(=O)(Nc1nccs1)c1ccc(NCc2cc(F)cc(Cl)c2O)cc1 [NCGC00273967-01] | -40% | YES | -1.4 | 31.6 µM | -28% | -1.4 | 1.8 µM | 170% | 3 | 39.8 µM | – | – | – | – | – | Confirm? (counterscreen) ([2]; counterscreen): YES
20 | CC1=NN(c2ccc(C)c(C)c2)C(=O)/C1=N/Nc1cccc(-c2cccc(C(=O)O)c2)c1O [NCGC00274067-01] | -83% | YES | -2.2 | 22.4 µM | – | – | – | -37% | -1.2 | 35.5 µM | – | – | – | – | – | Efficacy (%) [1, 14]: -69%; IC50 [1, 16]: 44.7 µM
21 | COc1cccc(CN(C)c2ccc(S(=O)(=O)Nc3nccs3)cc2)c1O.O=C(O)C(F)(F)F [NCGC00318978-01] | – | – | – | – | – | – | – | – | – | – | -2.4 | -35% | -2.4 | -33% | 39.8 µM | Confirm? (confirmatory screen) [1, 9]: YES; IC50 [1, 17]: 44.7 µM; Efficacy (%) [1, 14]: -24%; IC50 [1, 16]: 17.8 µM
